# Data taken from the supplement of paper PMC11061612.
# What was measured:
# A704 (Kidney Carcinoma) = assay: Bliss excess, mean over the matrix (fraction); higher = more synergy
# Summary of the method: (§1)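 Bliss excess equals the observed combination effect minus the expected value EA + EB − EA·EB, where EA and EB are the effects of each agent alone. Combination Emax is the second-highest inhibition within the matrix. Inhibition was scaled from CellTiter-Glo 2.0 luminescence, with 0 set by vehicle wells and 1 by blank wells, after 72 hours of two-drug dosing of cells plated in 1536-well plates.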
# [1] = test system: EMC-BAC-2 (Non-Small Cell Lung Carcinoma); assay: as above
# Summary of the method: as §1
# GOTO (Neuroblastoma) [2] = assay: as above
# Summary of the method: as §1
# [3] = test system: KYSE-50 (Esophageal Squamous Cell Carcinoma); assay: as above
# Summary of the method: as §1
# NB7 (Neuroblastoma) [4] = assay: as above
# Summary of the method: as §1
# [5] = test system: PFSK-1 (Other Solid Carcinomas); assay: as above
# Summary of the method: as §1
# [6] = test system: VMRC-LCD (Lung Adenocarcinoma); assay: as above
# Summary of the method: as §1
# [7] = test system: DG-75 (Burkitt's Lymphoma); assay: combination Emax (second highest fraction inhibited in the dose matrix, 72 h); higher = more inhibition; extreme values may be limits of the assay
# Summary of the method: as §1
# EW-13 (Ewing's Sarcoma) = assay: as above
# Summary of the method: as §1
# GOTO (Neuroblastoma) [8] = assay: as above
# Summary of the method: as §1
# [9] = test system: HuP-T3 (Pancreatic Carcinoma); assay: as above
# Summary of the method: as §1
# IMR-5 (Neuroblastoma) = assay: as above
# Summary of the method: as §1
# [10] = test system: KYSE-50 (Esophageal Squamous Cell Carcinoma); assay: as above
# Summary of the method: as §1
# [11] = test system: MFE-319 (Endometrial Carcinoma); assay: as above
# Summary of the method: as §1
# NB7 (Neuroblastoma) [12] = assay: as above
# Summary of the method: as §1
# [13] = test system: NCI-H2405 (Lung Adenocarcinoma); assay: as above
# Summary of the method: as §1
# [14] = test system: NCI-H513 (Other Solid Carcinomas); assay: as above
# Summary of the method: as §1
# [15] = test system: OCUM-1 (Gastric Carcinoma); assay: as above
# Summary of the method: as §1
# [16] = test system: TGBC11TKB (Gastric Carcinoma); assay: as above
# Summary of the method: as §1
# [17] = test system: VMRC-LCD (Lung Adenocarcinoma); assay: as above
# Summary of the method: as §1
SMILES,Bliss excess (A704 (Kidney Carcinoma)),Bliss excess [1],Bliss excess (GOTO (Neuroblastoma) [2]),Bliss excess [3],Bliss excess (NB7 (Neuroblastoma) [4]),Bliss excess [5],Bliss excess [6],combination Emax [7],combination Emax (EW-13 (Ewing's Sarcoma)),combination Emax (GOTO (Neuroblastoma) [8]),combination Emax [9],combination Emax (IMR-5 (Neuroblastoma)),combination Emax [10],combination Emax [11],combination Emax (NB7 (Neuroblastoma) [12]),combination Emax [13],combination Emax [14],combination Emax [15],combination Emax [16],combination Emax [17]
"COc1cc2ncnc(Nc3ccc(F)c(Cl)c3)c2cc1OCCCN1CCOCC1 [Gefitinib] + CC(C)n1c(=O)n(C)c2cnc3cc(F)c(-c4ccc(OCCCN5CCCCC5)nc4)cc3c21 [AZD1390] (first compound max 10 µM, 7x7, partner max 0.3 µM)",-0.0325,-0.0706,-0.07,-0.0546,-0.0402,-0.0688,-0.0405,0.373,0.117,0.257,0.14,0.123,0.334,0.0734,0.136,0.0242,0.268,0.148,0.296,0.0987
"COc1nnc2ccc(N3CCC(c4ccc(OCCN5CCN(C)C(=O)[C@H]5C)cc4)CC3)nn12 [AZD5153] + CCN(CCO)CCCOc1ccc2c(Nc3cc(CC(=O)Nc4cccc(F)c4)[nH]n3)ncnc2c1 [AZD2811] (first compound max 1 µM, 7x7, partner max 1 µM)",0.0278,-0.0242,-0.0561,-0.0309,-0.0296,-0.0478,0.0435,0.892,0.362,0.858,0.597,1,0.651,0.535,0.441,0.367,0.375,0.581,0.311,0.816
"CC1(C)CCC(CN2CCN(c3ccc(C(=O)NS(=O)(=O)c4ccc(NCC5CCOCC5)c([N+](=O)[O-])c4)c(Oc4cnc5[nH]ccc5c4)c3)CC2)=C(c2ccc(Cl)cc2)C1 [Venetoclax] + CCN(CCO)CCCOc1ccc2c(Nc3cc(CC(=O)Nc4cccc(F)c4)[nH]n3)ncnc2c1 [AZD2811] (first compound max 1 µM, 7x7, partner max 1 µM)",-0.0365,-0.0038,0.0162,0.0025,0.0098,0.0663,-0.0227,0.204,0.109,0.693,0.197,1,0.413,0.243,0.259,0.167,0.183,0.53,0.424,0.626
"CC1(C)CCC(CN2CCN(c3ccc(C(=O)NS(=O)(=O)c4ccc(NCC5CCOCC5)c([N+](=O)[O-])c4)c(Oc4cnc5[nH]ccc5c4)c3)CC2)=C(c2ccc(Cl)cc2)C1 [Venetoclax] + C=CCn1c(=O)c2cnc(Nc3ccc(N4CCN(C)CC4)cc3)nc2n1-c1cccc(C(C)(C)O)n1 [AZD1775] (first compound max 1 µM, partner max 1 µM)",-0.0283,-0.0562,0.0047,-0.0395,0.0082,-0.0171,-0.0174,0.833,0.129,0.921,0.399,0.924,0.647,0.858,0.722,0.169,0.47,0.653,0.942,0.391
"C[C@@H](c1ccc2nccn2c1)n1nnc2ncc(-c3cnn(C)c3)nc21 [Savolitinib] + Cc1c2c(nn1C)CSCc1cc(n(C)n1)CSc1cc(c3ccccc3c1)OCCCc1c(C(=O)O)n(C)c3c-2c(Cl)ccc13 [AZD5991] (first compound max 1 µM, 7x7, partner max 1 µM)",-0.0508,-0.0767,-0.0227,-0.0382,-0.0221,0.02,-0.0198,0.11,0.313,0.804,0.189,0.645,0.298,0.406,0.462,0.0962,0.0607,0.257,0.507,0.154
"NC1(C(=O)N[C@@H](CCO)c2ccc(Cl)cc2)CCN(c2ncnc3[nH]ccc23)CC1 [Capivasertib] + COc1nnc2ccc(N3CCC(c4ccc(OCCN5CCN(C)C(=O)[C@H]5C)cc4)CC3)nn12 [AZD5153] (first compound max 10 µM, 7x7, partner max 1 µM)",0.0204,0.0396,0.032,-0.0054,-0.0483,-0.0158,0.0154,0.884,0.636,0.802,0.522,0.857,0.525,0.962,0.762,0.481,0.416,0.596,0.253,0.454
